Source: US10954252B1, “Inhibitors of human immunodeficiency virus replication” (ViiV HEALTHCARE UK (NO.5) LIMITED, priority 2017, dated 2021)

Key:
[1] = tested on: recombinant NL4-3 virus (nef section replaced with Renilla luciferase gene) in MT-2 cells; experiment: HIV cell culture assay (antiviral activity, luciferase readout); format: cell-based; details: MT-2 cells infected for 4-5 days with recombinant NL4-3 luciferase virus
Summary of the method: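 NL4-3 reporter virus carrying Renilla luciferase in place of part of nef, produced in 293T cells, was used to infect MT-2 cells for 4-5 days with serial compound dilutions. Luciferase activity was read with a live-cell substrate; EC50 derived from the median effect equation.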

uninfected MT2 cells = experiment: Compound cytotoxicity, XTT-based colorimetric assay; format: cell-based; details: Table 1a, day 4, XTT
Summary of the method: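 CC50 from uninfected MT2 cells run under the antiviral-assay protocol without virus. Viability read on day 4 by XTT colorimetric assay.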

Row | Compound | EC50 ([1]; Table 1a) | CC50 (uninfected MT2 cells) | EC50 ([1]; Renilla, NL43, Table 1a)
1 | CS(=O)(=O)Nc1nn(CC(F)(F)F)c2c(-c3cc4[nH]ncc4nc3[C@H](Cc3cc(F)cc(F)c3)NC(=O)Cn3nc(C(F)F)c4c3C(F)(F)[C@@H]3C[C@H]43)ccc(Cl)c12 (single isomer, unassigned) [Example 95] | 0.094 nM | > 1000 nM | –
2 | Cc1cccc2c(=O)n(-c3ccc(Cl)c4c(NS(C)(=O)=O)nn(C)c34)c([C@H](Cc3cc(F)cc(F)c3)NC(=O)Cn3nc(C(F)F)c4c3C(F)(F)[C@@H]3C[C@H]43)nc12 (single isomer, unassigned) [Example 98] | 0.747 nM | > 1000 nM | –
3 | Cn1nc(NS(C)(=O)=O)c2c(Cl)ccc(-n3c([C@H](Cc4cc(F)cc(F)c4)NC(=O)Cn4nc(C(F)F)c5c4CCC5)nc4c(F)cc(F)cc4c3=O)c21 (single isomer, unassigned) [Example 100] | 0.033 nM | > 1000 nM | –
4 | Cn1nc(NS(C)(=O)=O)c2c(Cl)ccc(-n3c([C@H](Cc4cc(F)cc(F)c4)NC(=O)Cn4nc(C(F)F)c5c4C(F)(F)[C@@H]4C[C@H]54)nc4c(Cl)cccc4c3=O)c21 (single isomer, unassigned) [Example 102] | 1.04 nM | > 1000 nM | –
5 | COc1cccc2c(=O)n(-c3ccc(Cl)c4c(NS(C)(=O)=O)nn(C)c34)c([C@H](Cc3cc(F)cc(F)c3)NC(=O)Cn3nc(C(F)F)c4c3C(F)(F)[C@@H]3C[C@H]43)nc12 (single isomer, unassigned) [Example 104] | – | > 1000 nM | 0.064 nM
6 | Cc1c(F)ccc2c(=O)n(-c3ccc(Cl)c4c(NS(C)(=O)=O)nn(C)c34)c([C@H](Cc3cc(F)cc(F)c3)NC(=O)Cn3nc(C(F)F)c4c3C(F)(F)[C@@H]3C[C@H]43)nc12 (single isomer, unassigned) [Example 108] | 0.85 nM | > 1000 nM | –
7 | COc1c(F)ccc2c(=O)n(-c3ccc(Cl)c4c(NS(C)(=O)=O)nn(C)c34)c([C@H](Cc3cc(F)cc(F)c3)NC(=O)Cn3nc(C(F)F)c4c3C(F)(F)[C@@H]3C[C@H]43)nc12 (single isomer, unassigned) [Example 110] | 0.072 nM | > 1000 nM | –
8 | COc1c(F)ccc2c(=O)n(-c3ccc(Cl)c4c(NS(C)(=O)=O)nn(C)c34)c([C@H](Cc3cc(F)cc(F)c3)NC(=O)Cn3ccc(C4CC4)n3)nc12 (single isomer, unassigned) [Example 112] | 0.51 nM | > 1000 nM | –
9 | COc1c(F)cc2c(=O)n(-c3ccc(Cl)c4c(NS(C)(=O)=O)nn(C)c34)c([C@H](Cc3cc(F)cc(F)c3)NC(=O)Cn3ccc(C4CC4)n3)nc2c1F (single isomer, unassigned) [Example 116] | 0.231 nM | > 1000 nM | –
10 | Cn1ccc2nc(C(Cc3cc(F)cc(F)c3)NC(=O)Cn3nc(C(F)F)c4c3C(F)(F)[C@@H]3C[C@H]43)c(-c3ccc(Cl)c4c(NS(C)(=O)=O)nn(C)c34)cc21 (single isomer, unassigned) [Example 118] | 0.162 nM | > 10000 nM | –
11 | Cn1ccc2nc([C@H](Cc3cc(F)cc(F)c3)NC(=O)Cn3nc(C(F)F)c4c3C(F)(F)[C@@H]3C[C@H]43)c(-c3ccc(Cl)c4c(NS(C)(=O)=O)nn(C)c34)cc21 (single isomer, unassigned) [Example 120] | 0.0753 nM | > 10000 nM | –
12 | Cn1ccc2nc([C@@H](Cc3cc(F)cc(F)c3)NC(=O)Cn3nc(C(F)F)c4c3C(F)(F)[C@@H]3C[C@H]43)c(-c3ccc(Cl)c4c(NS(C)(=O)=O)nn(C)c34)cc21 (single isomer, unassigned) [Example 122] | 172 nM | > 10000 nM | –
13 | Cc1cccc2nc([C@H](Cc3cc(F)cc(F)c3)NC(=O)Cn3nc(C(F)F)c4c3C(F)(F)[C@@H]3C[C@H]43)n(-c3ccc(Cl)c4c(NS(C)(=O)=O)nn(C)c34)c(=O)c12 (single isomer, unassigned) [Example 126] | 0.054 nM | > 1000 nM | –
14 | Cn1nc(NS(C)(=O)=O)c2c(Cl)ccc(-n3c([C@H](Cc4cc(F)cc(F)c4)NC(=O)Cn4nc(C(F)F)c5c4C(F)(F)[C@@H]4C[C@H]54)nc4cccc(C(F)(F)F)c4c3=O)c21 (single isomer, unassigned) [Example 128] | 0.62 nM | > 1000 nM | –
15 | Cc1cccc2nc([C@H](Cc3cc(F)cc(F)c3)NC(=O)Cn3ccc(C4CC4)n3)n(-c3ccc(Cl)c4c(NS(C)(=O)=O)nn(C)c34)c(=O)c12 (single isomer, unassigned) [Example 134] | 2.21 nM | > 1000 nM | –
16 | Cn1nc(NS(C)(=O)=O)c2c(Cl)ccc(-n3c([C@H](Cc4cc(F)cc(F)c4)NC(=O)Cn4nc(C(F)F)c5c4C(F)(F)[C@@H]4C[C@H]54)nc4cc(C(F)(F)F)ccc4c3=O)c21 (single isomer, unassigned) [Example 138] | 0.042 nM | > 1000 nM | –

Row | Compound | EC50 ([1]; Table 1a) | CC50 (uninfected MT2 cells) | EC50 ([1]; Renilla, NL43, Table 1a)
17 | Cn1nc(NS(C)(=O)=O)c2c(Cl)ccc(-n3c([C@H](Cc4cc(F)cc(F)c4)NC(=O)Cn4ccc(C(F)(F)F)n4)nc4cc(C(F)(F)F)ccc4c3=O)c21 (single isomer, unassigned) [Example 142] | 4.98 nM | > 1000 nM | –
18 | Cn1nc(NS(C)(=O)=O)c2c(Cl)ccc(-n3c([C@H](Cc4cc(F)cc(F)c4)NC(=O)Cn4ccc(C(F)(F)F)n4)nc4ccc(OC(F)(F)F)cc4c3=O)c21 (single isomer, unassigned) [Example 144] | 8.08 nM | > 1000 nM | –
19 | Cn1nc(NS(C)(=O)=O)c2c(Cl)ccc(-n3c([C@H](Cc4cc(F)cc(F)c4)NC(=O)Cn4ccc(C5CC5)n4)nc4c(F)ccc(F)c4c3=O)c21 (single isomer, unassigned) [Example 146] | 0.62 nM | > 1000 nM | –
20 | Cn1nc(NS(C)(=O)=O)c2c(Cl)ccc(-n3c([C@H](Cc4cc(F)cc(F)c4)NC(=O)Cn4nc(C(F)F)c5c4C(F)(F)[C@@H]4C[C@H]54)nc4c(F)ccc(F)c4c3=O)c21 (single isomer, unassigned) [Example 148] | 0.13 nM | > 1000 nM | –
21 | Cn1nc(NS(C)(=O)=O)c2c(Cl)ccc(-n3c([C@H](Cc4cc(F)cc(F)c4)NC(=O)Cn4ccc(C5CC5)n4)nc4cc(C(F)(F)F)ccc4c3=O)c21 (single isomer, unassigned) [Example 151] | – | > 1000 nM | 0.74 nM
22 | Cn1nc(NS(C)(=O)=O)c2c(Cl)ccc(-n3c([C@H](Cc4cc(F)cc(F)c4)NC(=O)Cn4ccc(C5CC5)n4)nc4ccc(OC(F)(F)F)cc4c3=O)c21 (single isomer, unassigned) [Example 153] | 0.97 nM | > 1000 nM | –
23 | Cn1nc(NS(C)(=O)=O)c2c(Cl)ccc(-n3c([C@H](Cc4cc(F)cc(F)c4)NC(=O)Cn4nc(C(F)F)c5c4C(F)(F)[C@@H]4C[C@H]54)nc4ccc(F)c(Cl)c4c3=O)c21 (single isomer, unassigned) [Example 161] | 28.9 nM | > 1000 nM | –
24 | COc1ccc2nc([C@H](Cc3cc(F)cc(F)c3)NC(=O)Cn3nc(C(F)F)c4c3C(F)(F)[C@@H]3C[C@H]43)n(-c3ccc(Cl)c4c(NS(C)(=O)=O)nn(C)c34)c(=O)c2c1 (single isomer, unassigned) [Example 174] | 0.096 nM | > 1000 nM | –
25 | Cn1nc(NS(C)(=O)=O)c2c(Cl)ccc(-n3c([C@H](Cc4cc(F)cc(F)c4)NC(=O)Cn4nc(C(F)F)c5c4C(F)(F)[C@@H]4C[C@H]54)nc4ccc(Cl)c(F)c4c3=O)c21 (single isomer, unassigned) [Example 177] | 45 nM | > 1000 nM | –
26 | Cn1nc(NS(C)(=O)=O)c2c(Cl)ccc(-n3c([C@H](Cc4cc(F)cc(F)c4)NC(=O)Cn4nc(C(F)F)c5c4C(F)(F)[C@@H]4C[C@H]54)nc4cc(Cl)cc(Cl)c4c3=O)c21 (single isomer, unassigned) [Example 180] | 87.4 nM | > 1000 nM | –
27 | COc1cc(OC)c2c(=O)n(-c3ccc(Cl)c4c(NS(C)(=O)=O)nn(C)c34)c([C@H](Cc3cc(F)cc(F)c3)NC(=O)Cn3nc(C(F)F)c4c3C(F)(F)[C@@H]3C[C@H]43)nc2c1 (single isomer, unassigned) [Example 182] | 0.061 nM | > 1000 nM | –
28 | Cn1nc(NS(C)(=O)=O)c2c(Cl)ccc(-n3c([C@H](Cc4cc(F)cc(F)c4)NC(=O)Cn4ccc(C5CC5)n4)nc4cccc(F)c4c3=O)c21 (single isomer, unassigned) [Example 184] | 0.35 nM | > 1000 nM | –
29 | COc1cc(F)c2c(=O)n(-c3ccc(Cl)c4c(NS(C)(=O)=O)nn(C)c34)c([C@H](Cc3cc(F)cc(F)c3)NC(=O)Cn3nc(C(F)F)c4c3C(F)(F)[C@@H]3C[C@H]43)nc2c1 (single isomer, unassigned) [Example 187] | 178 nM | > 1000 nM | –
30 | COc1cc(F)c2c(=O)n(-c3ccc(Cl)c4c(NS(C)(=O)=O)nn(C)c34)c([C@H](Cc3cc(F)cc(F)c3)NC(=O)Cn3ccc(C4CC4)n3)nc2c1 (single isomer, unassigned) [Example 190] | 42.2 nM | > 1000 nM | –
31 | Cn1nc(NS(C)(=O)=O)c2c(Cl)ccc(-n3c([C@H](Cc4cc(F)cc(F)c4)NC(=O)Cn4ccc(C5CC5)n4)nc4cc(CS(C)(=O)=O)ccc4c3=O)c21 (single isomer, unassigned) [Example 206] | – | > 1000 nM | 0.64 nM
32 | CC(C)c1ccc(-c2cc3[nH]ccc3nc2[C@H](Cc2cc(F)cc(F)c2)NC(=O)Cn2nc(C(F)F)c3c2C(F)(F)[C@@H]2C[C@H]32)cn1 [Example 82, 2-((3bS,4aR)-3-(difluoromethyl)-5,5-difluoro-3b,4,4a,5-tetrahydro-1H-cyclopropa[3,4]cyclopenta[1,2-c]pyrazol-1-yl)-N—((S)-2-(3,5-difluorophenyl)-1-(6-(6-isopropylpyridin-3-yl)-1H-pyrrolo[3,2-b]pyridin-5-yl)ethyl)acetamide] | – | 6310 nM | 3.81 nM
